In patent publication US20050289665A1, “Method for disinfecting seed” (priority 2004, published 2005):
Like-named read-outs stand apart in the source and are kept apart here.

Key:
[1] = system: microbial contaminants on the seeds; settings: loblolly pine, 30% H2O2 15 minutes; for contamination of whole seed: TSYG broth at 30° C.
Description: Methods: The following disinfection treatment was used for loblolly pine seed: • (1) Seed was placed in a tea strainer (about 100 seed/strainer) and soaked in deionized water for one hour with agitation; • (2) The seed in the tea strainer was soaked in a 10% solution of Liquinox (VWR Scientific) for one hour with agitation; • (3) The seed in the tea strainer was soaked in 30% H2O2 on a rotary shaker in a fume hood for 15 minutes; • (4) The seed in the tea strainer was rinsed 8 times for 10 minutes each in sterile water in a laminar flow hood; • (5) The seed in the tea strainer was hydrated in sterile water for 24 hours in a laminar flow hood; and • (6) The seed in the tea strainer was rinsed three times with sterile water for 10 minutes each.
After disinfection and hydration, seed were removed from the tea strainers and placed on a sterile Petri plate. Seed were individually removed with surface-sterilized latex gloves, cracked using autoclaved Vice-Grips, and placed in sterile quadrant Petri plates (2 seeds/quadrant) containing a drop of sterile water to avoid dehydration before dissection. After dissection, 50 whole seed and 50 dissected embryos were incubated in TSYG broth (Trypticase Soy Broth 30 g/l, Yeast Extract 5 g/l, Glucose 10 g/l, and—for a solid Petri plate or agar slant—Agar 15 g/l) and examined on a daily basis for signs of contamination during an eight week incubation period at 30° C.

[2] = system: microbial contaminants on the seeds; assay: Contamination of dissected embryos after disinfection of loblolly pine seed (Example 5); type: cell-based; settings: treatment 1: 30% hydrogen peroxide 15 min, vacuum, day 24 after dissection
Description: (§1) Methods: The first treatment was identical to the first treatment (hydrogen peroxide) described in EXAMPLE 4, and the second treatment was identical to the fifth treatment ([…]) described in EXAMPLE 4. Seed coats were cracked and removed, and the de-coated seeds were placed in sterile glass Petri plates (one plate/treatment) containing wet filter paper until dissection. Dissection was performed in quadrant Petri plates. A maximum of four seed were dissected per quadrant. […] Organ lengths and normalcy were assessed after 24 days on the medium.

[3] = system: loblolly pine seed; assay: Germination of dissected embryos on medium 185 (normalcy, organ lengths, epicotyl presence) after disinfection of loblolly pine seed (Example 5); settings: treatment 1: 30% hydrogen peroxide 15 min, vacuum, day 24 after dissection
Description: as §1

Cotyledon Length (cm) [3]: 0.7 cm
Epicotyl Presence (%) [3]: 65.7%
Hypocotyl Length (cm) [3]: 1.2 cm
Normalcy (%) [3]: 85.7%
Radicle Length (cm) [3]: 3.4 cm
SMILES: OO [hydrogen peroxide]
contamination of whole seed ([1]; after eight weeks of incubation): 68%
contamination of whole seed ([1]; by the third day of incubation, 4 out of 50 whole seed): 8%
contamination of dissected embryos ([1]; TSYG broth, eight week incubation at 30° C.): no contamination
Contamination (%) [2]: 0%
